Values of other authors in patent publication US20110178167A1, “METHOD FOR INHIBITING ACTIVITY AND/OR EXPRESSION OF MATRIX METALLOPROTEINASE, INHIBITING PHOSPHORYLATION OF MITOGEN-ACTIVATED PROTEIN KINASE, AND/OR PROMOTING EXPRESSION OF COLLAGEN USING TERMINALIA CATAPPA LEAF EXTRACT” (priority 2010, published 2011).

Test system: matrix metalloproteinase-1
Details: related art

| SMILES | expression of matrix metalloproteinase-1 |
| --- | --- |
| O=c1cc(-c2ccc(O)c(-c3c(O)c(O)c(O)c4c(=O)cc(-c5ccc(O)cc5)oc34)c2)oc2cc(O)cc(O)c12 [sumaflavone] | inhibited |
| C[C@@H]1CC[C@]2(C(=O)O[C@@H]3O[C@H](CO)[C@@H](O)[C@H](O)[C@H]3O)CC[C@]3(C)C(=CC[C@@H]4[C@@]5(C)CC[C@H](O[C@@H]6OC[C@H](O)[C@H](O)[C@H]6O)C(C)(C)[C@@H]5CC[C@]43C)[C@@H]2[C@]1(C)O [ziyuglycoside-I] | inhibited |
